In patent publication US7781161B2, “Genomic screen for epigenetically silenced tumor suppressor genes” (The Johns Hopkins University School of Medicine, priority 2002, dated 2010):

How the values were obtained:
Format in all cases: cell-based, human
[1] = tested on: 3 ESCC cell lines; experiment: Microarray screen, pooled over the 3 ESCC cell lines
Method: (§1) Cells were split to low density (5×10^5 per T-25 flask) 12 to 24 hr before treatment, then treated for 3, 4, or 5 days with 1 μM or 5 μM 5Aza-dC (Sigma) from 100-mM 50% acetic acid dissolved stock or were mock-treated with the same volume of phosphate buffered saline (PBS) including the same acetic acid. Following an initial incubation (48 hr) of 5Aza-dC, a final concentration of 300 nM TSA (Sigma) was added to the media from a 5 mM ethanol dissolved stock, or cells were mock-treated with an identical volume of ethanol.
(§2) Oligonucleotide microarray analysis was performed using the GeneChip™ Human Genome U95Av2 Array (Affymetrix), which contains 12,599 genes, according to the manufacturer's instruction. […] RNA was isolated using TRIZOL reagent (Invitrogen Corp.) and reverse-transcribed total RNA (8 μg) with M-MLV (Invitrogen Corp.); one one-hundredth of the cDNA product was used as a template for PCR. RT-PCR was performed at 24 to 30 cycles: 95° C. for 1 min, 54 or 56° C. for 1 min, and 72° C. for 1 min.
Treatment of cells with the demethylating agent 5aza-dC (1 μM or 5 μM) for 3 to 5 days, and with or without the histone deacetylase inhibitor, TSA (300 nM; last 24 hours), was used to reactivate genes epigenetically silenced in 3 ESCC cell lines. […]

[2] = tested on: HNSCC #011 cell line; experiment: Microarray screen for reactivated genes in HNSCC cells; conditions: 10 μM 5Aza-dC
Method: as §1, §2
HNSCC cells were incubated with 10 μM 5Aza-dC or with 0.1 μM 5Aza-dC and 300 nM TSA and screened as described in Example 1.

[3] = tested on: KYSE520; experiment: Oligonucleotide microarray: genes up-regulated after 5Aza-dC ± TSA treatment; conditions: at least 3.0 fold increase
Method: as §1, §2
(§3) Treatment of cells with the demethylating agent 5aza-dC (1 μM or 5 μM) for 3 to 5 days, and with or without the histone deacetylase inhibitor, TSA (300 nM; last 24 hours), was used to reactivate genes epigenetically silenced in 3 ESCC cell lines. […] The number of candidate genes was further diminished by comparing expression patterns (see world wide web, at URL “cgap.nci.nih.gov”) in normal esophagus and carcinoma tissue samples (eliminating those genes not expressed in normal tissue), and excluding unknown genes.

[4] = tested on: KYSE30; experiment: as above; conditions: at least 3.0 fold increase
Method: as §1, §2, §3

[5] = tested on: KYSE410; experiment: as above; conditions: at least 3.0 fold increase
Method: as §1, §2, §3

SMILES: Nc1ncn([C@H]2C[C@H](O)[C@@H](CO)O2)c(=O)n1 [5Aza-dC, 5-aza-2′-deoxycytidine]
- Share of all up-regulated genes included in the treatment group ([1]; 5 μM 5Aza-dC treatment group, 3 ESCC cell lines): > 80%
- STAT3 expression after treatment ([1]; after 5Aza-dC treatments): did not change
- Reactivation of epigenetically silenced genes ([2]; HNSCC cells): Reactivation of epigenetically silenced genes was observed
- Fold increase in expression: H.sapiens p27 mRNA (X67325) ([2]; probe 425_at, HNSCC #011): 5.8 fold
- Fold increase in expression: tumor necrosis factor alpha inducible protein ([2]; probe 595_at, HNSCC #011): 3.648 fold
- Fold increase in expression: von Hippel-Lindau disease tumor suppressor mRNA ([2]; probe 1668_s_a, HNSCC #011): 2.4375 fold
- Fold increase in expression: insulin-like growth factor binding protein 6 (IGFBP6) gene (M62402) ([2]; probe 1736_at, HNSCC #011): 2.2 fold
- Fold increase in expression: Human Rad mRNA (L24564) ([2]; probe 1776_at, HNSCC #011): 10.9 fold
- Fold increase in expression: mRNA for TGF-betaIIR alpha ([2]; probe 1814_at, HNSCC #011): 3.3 fold
- Fold increase in expression: Human Bc12, p53 binding protein (U58334) ([2]; probe 1860_at, HNSCC #011): 2.3 fold
- Fold increase in expression: Human R-ras gene (M14949) ([2]; probe 1879_at, HNSCC #011): 3.7 fold
- Fold increase in expression: Human excision repair protein (ERCC1) mRNA ([2]; probe 1902_at, HNSCC #011): 5.562 fold
- Fold increase in expression: Human wild-type p53 activated fragment-1 (WAF1) mRNA (U03106) ([2]; probe 2031_s_a, HNSCC #011): 2.9 fold
- Fold increase in expression: breast cancer putative transcription factor (ZABC1) gene (AF041259) ([2]; probe 32034_at, HNSCC #011): 3.1 fold
- Fold increase in expression: DR4 homolog; TRAIL receptor 2 ([2]; probe 34892_at, HNSCC #011): 2.4292 fold
- Fold increase in expression: DOC-1 related protein ([2]; probe 35151_at, HNSCC #011): 2.4474 fold
- Fold increase in expression: Mothers against dpp (Mad) gene (DPC4 gene), U10328 ([2]; probe 36953_at, HNSCC #011): 3.5132 fold
- Fold increase in expression: TGFb inducible early protein and early growth response protein alpha genes (AF050110) ([2]; probe 38374_at, HNSCC #011): 2.3 fold
- Fold increase in expression: insulin-like growth factor binding protein 4 (IGFBP4) gene (U20982) ([2]; probe 39781_at, HNSCC #011): 3.7 fold
- Genes upregulated by microarray analysis after treatments ([3]; 1 μM 5Aza-dC): 5 genes
- Genes upregulated by microarray analysis after treatments ([3]; 5 μM 5Aza-dC): 149 genes
- Genes upregulated by microarray analysis after treatments ([4]; 1 μM 5Aza-dC): 46 genes
- Genes upregulated by microarray analysis after treatments ([4]; 5 μM 5Aza-dC): 242 genes
- Genes upregulated by microarray analysis after treatments ([5]; 1 μM 5Aza-dC): 15 genes
- Genes upregulated by microarray analysis after treatments ([5]; 5 μM 5Aza-dC): 334 genes
